pIC50: −log10 of the molar value.
The compounds below were run against human Cav2.2 (Homo sapiens, UniProt Q00975) (assay: Assessment of calcium channel activity using FLIPR (Ca2+ influx in IMR32 cells)). Settings: not given.
Type: cell-based
Outline: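 IC50 values derive from nonlinear sigmoidal fitting of percent inhibition, relative to inhibitor-free activity, of Ca2+ influx read by FLIPR. Cells were IMR32 human neuroblastoma, plated at 1−1.2×10^5 per well and grown 48 h at 37 °C.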

Sequence of human Cav2.2 (Q00975 whole entry): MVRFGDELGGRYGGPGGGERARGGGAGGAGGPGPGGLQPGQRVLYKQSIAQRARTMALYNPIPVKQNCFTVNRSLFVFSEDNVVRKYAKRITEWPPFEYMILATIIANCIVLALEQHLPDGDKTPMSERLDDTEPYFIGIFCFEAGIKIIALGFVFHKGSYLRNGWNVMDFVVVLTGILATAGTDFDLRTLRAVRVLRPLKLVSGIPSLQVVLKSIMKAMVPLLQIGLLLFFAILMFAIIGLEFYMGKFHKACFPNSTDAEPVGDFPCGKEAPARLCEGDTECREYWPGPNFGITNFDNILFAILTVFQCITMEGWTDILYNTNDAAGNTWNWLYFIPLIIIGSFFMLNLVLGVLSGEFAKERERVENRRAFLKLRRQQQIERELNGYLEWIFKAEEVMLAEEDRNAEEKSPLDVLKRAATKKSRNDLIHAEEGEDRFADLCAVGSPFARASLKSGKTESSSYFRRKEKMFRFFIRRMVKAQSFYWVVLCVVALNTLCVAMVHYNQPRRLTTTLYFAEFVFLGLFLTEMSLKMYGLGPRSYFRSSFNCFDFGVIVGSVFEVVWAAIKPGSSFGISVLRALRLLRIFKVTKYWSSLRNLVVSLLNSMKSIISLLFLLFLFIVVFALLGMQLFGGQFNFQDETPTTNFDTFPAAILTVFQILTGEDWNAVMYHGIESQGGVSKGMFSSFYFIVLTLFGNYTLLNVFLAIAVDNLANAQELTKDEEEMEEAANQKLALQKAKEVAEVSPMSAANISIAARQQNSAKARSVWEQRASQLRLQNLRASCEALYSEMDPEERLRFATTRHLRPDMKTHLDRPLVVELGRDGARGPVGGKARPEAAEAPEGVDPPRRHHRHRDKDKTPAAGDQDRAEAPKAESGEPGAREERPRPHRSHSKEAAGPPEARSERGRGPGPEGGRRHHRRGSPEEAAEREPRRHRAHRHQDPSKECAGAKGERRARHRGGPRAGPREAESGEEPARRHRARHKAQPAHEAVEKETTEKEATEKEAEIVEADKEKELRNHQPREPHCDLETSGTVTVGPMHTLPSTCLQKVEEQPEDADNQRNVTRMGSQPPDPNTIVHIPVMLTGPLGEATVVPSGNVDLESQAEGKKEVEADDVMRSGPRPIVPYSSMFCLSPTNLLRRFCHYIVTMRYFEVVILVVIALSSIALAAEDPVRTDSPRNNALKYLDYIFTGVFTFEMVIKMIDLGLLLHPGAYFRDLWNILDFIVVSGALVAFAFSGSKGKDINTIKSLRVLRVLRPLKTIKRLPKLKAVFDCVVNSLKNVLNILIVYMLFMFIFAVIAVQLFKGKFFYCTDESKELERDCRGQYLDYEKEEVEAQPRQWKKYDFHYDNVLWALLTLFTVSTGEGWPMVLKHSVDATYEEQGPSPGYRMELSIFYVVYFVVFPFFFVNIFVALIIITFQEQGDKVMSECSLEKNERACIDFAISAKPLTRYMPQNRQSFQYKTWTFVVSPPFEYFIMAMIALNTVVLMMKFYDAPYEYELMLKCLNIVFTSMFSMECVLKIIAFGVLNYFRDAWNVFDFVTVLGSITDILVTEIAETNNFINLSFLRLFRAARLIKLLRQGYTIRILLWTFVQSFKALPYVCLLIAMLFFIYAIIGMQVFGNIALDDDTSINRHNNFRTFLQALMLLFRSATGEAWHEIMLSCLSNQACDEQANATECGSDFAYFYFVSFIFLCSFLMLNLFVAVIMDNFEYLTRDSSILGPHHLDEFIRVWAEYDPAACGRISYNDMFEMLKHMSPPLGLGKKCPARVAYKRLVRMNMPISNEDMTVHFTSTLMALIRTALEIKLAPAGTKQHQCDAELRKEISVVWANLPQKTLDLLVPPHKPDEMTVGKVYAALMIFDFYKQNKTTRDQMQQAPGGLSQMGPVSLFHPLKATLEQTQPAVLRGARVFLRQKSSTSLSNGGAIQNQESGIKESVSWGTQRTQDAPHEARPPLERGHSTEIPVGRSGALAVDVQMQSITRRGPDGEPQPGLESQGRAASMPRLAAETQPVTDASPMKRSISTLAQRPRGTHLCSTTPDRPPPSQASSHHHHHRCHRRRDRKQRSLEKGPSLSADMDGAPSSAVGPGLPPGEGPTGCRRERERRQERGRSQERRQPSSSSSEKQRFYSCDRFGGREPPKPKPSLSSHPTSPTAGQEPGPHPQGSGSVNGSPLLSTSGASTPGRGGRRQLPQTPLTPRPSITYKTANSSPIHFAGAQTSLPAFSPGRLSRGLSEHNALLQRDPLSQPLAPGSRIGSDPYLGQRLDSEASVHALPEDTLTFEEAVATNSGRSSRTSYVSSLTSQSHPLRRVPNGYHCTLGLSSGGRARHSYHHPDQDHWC
Sequence of human Cav2.2 (P54289 25-956 partner limits assumed): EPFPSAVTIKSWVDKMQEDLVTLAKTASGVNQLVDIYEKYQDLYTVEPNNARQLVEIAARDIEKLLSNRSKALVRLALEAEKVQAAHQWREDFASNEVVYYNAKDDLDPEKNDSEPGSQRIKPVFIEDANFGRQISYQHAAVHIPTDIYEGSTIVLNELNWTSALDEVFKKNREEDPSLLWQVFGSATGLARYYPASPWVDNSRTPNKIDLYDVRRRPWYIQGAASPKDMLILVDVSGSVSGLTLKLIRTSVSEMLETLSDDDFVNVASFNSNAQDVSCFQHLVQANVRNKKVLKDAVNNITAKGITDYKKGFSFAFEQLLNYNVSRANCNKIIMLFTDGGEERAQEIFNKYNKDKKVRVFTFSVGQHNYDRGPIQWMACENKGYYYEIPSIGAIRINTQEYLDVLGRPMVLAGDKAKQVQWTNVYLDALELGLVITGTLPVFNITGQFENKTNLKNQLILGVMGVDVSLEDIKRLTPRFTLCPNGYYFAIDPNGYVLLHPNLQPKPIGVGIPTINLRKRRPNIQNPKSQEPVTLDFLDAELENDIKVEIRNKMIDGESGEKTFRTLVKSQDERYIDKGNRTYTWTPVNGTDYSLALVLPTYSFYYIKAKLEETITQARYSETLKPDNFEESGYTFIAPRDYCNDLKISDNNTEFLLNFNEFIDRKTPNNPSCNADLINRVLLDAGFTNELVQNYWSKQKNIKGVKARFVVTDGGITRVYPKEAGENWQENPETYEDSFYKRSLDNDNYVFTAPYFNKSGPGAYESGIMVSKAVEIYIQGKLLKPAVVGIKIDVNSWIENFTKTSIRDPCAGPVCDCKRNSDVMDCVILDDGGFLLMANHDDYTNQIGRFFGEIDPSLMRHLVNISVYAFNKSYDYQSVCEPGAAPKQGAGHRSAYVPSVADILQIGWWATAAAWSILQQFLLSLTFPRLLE
Sequence of human Cav2.2 (P54289 957-1103 partner limits assumed): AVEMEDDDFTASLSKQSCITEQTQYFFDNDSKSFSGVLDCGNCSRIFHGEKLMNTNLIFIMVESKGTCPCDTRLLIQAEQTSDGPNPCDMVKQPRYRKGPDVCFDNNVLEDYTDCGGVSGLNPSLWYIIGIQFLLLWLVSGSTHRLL
Sequence of human Cav2.2 (P54284 whole entry partner): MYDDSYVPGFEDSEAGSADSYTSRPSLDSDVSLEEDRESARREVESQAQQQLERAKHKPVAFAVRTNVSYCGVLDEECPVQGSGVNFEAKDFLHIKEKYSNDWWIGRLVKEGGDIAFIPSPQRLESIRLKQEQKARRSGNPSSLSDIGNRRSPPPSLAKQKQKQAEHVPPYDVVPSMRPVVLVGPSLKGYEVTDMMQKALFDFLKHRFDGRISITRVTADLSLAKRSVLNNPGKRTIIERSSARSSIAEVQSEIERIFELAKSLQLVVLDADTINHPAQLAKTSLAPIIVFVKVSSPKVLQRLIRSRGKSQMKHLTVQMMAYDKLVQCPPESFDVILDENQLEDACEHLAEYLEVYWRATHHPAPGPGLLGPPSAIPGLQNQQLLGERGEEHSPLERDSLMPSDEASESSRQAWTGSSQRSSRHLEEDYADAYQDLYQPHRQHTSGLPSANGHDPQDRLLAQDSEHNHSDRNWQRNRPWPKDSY

Compound | pIC50
FC(F)(F)c1cccc(N2C[C@H]3CC[C@H](NCc4cc5cccnc5s4)[C@H]3C2)n1 [Example 727, (3aR,4S,6aS)-N-(thieno[2,3-b]pyridin-2-ylmethyl)-2-[6-(trifluoromethyl)pyridin-2-yl]octahydrocyclopenta[c]pyrrol-4-amine] | 6.24
CN[C@H](C(=O)N[C@H]1CC[C@@H]2CN(c3cccc(C(F)(F)F)n3)C[C@@H]21)C(C)C [Example 764, N^2-methyl-N-{(3aR,4S,6aS)-2-[6-(trifluoromethyl)pyridin-2-yl]octahydrocyclopenta[c]pyrrol-4-yl}-L-valinamide] | 6.02
NC1(C(=O)N[C@H]2CC[C@@H]3CN(c4cccc(C(F)(F)F)n4)C[C@@H]32)CCCC1 [Example 594, 1-amino-N-{(3aR,4S,6aS)-2-[6-(trifluoromethyl)pyridin-2-yl]octahydrocyclopenta[c]pyrrol-4-yl}cyclopentanecarboxamide] | 5.84
CC(C)CC(C(=O)NC1CCC2CN(Cc3ccc(C(F)(F)F)c(F)c3)CC21)N(C)C(=O)OC(C)(C)C [Example 311, tert-butyl(S)-1-((3aS,4R,6aR)-2-(3-fluoro-4-(trifluoromethyl)benzyl)octahydrocyclopenta[c]pyrrol-4-ylamino)-4-methyl-1-oxopentan-2-ylmethyl)carbamate] | 5.69
CCC[C@H](N)C(=O)N[C@@H]1CC[C@H]2CN(S(=O)(=O)c3ccc(C(F)(F)F)cc3)C[C@H]21 [Example 423, N^1-((3aS,4R,6aR)-2-{[4-(trifluoromethyl)phenyl]sulfonyl}octahydrocyclopenta[c]pyrrol-4-yl)-L-norvalinamide] | 5.19
O=C(N[C@@H]1CC[C@@H]2CN(Cc3ccccc3)C[C@@H]21)C(c1ccccc1)C1CCCCC1 (relative stereo) [Example 3, N-[(3aR*,4R*,6aS*)-2-benzyloctahydrocyclopenta[c]pyrrol-4-yl]-2-cyclohexyl-2-phenylacetamide] | 5.97
CCC[C@H](NC)C(=O)N[C@H]1CC[C@@H]2CN(c3ccc(C(F)(F)F)cc3)C[C@@H]21 [Example 759, N^2-methyl-N-{(3aR,4S,6aS)-2-[4-(trifluoromethyl)phenyl]octahydrocyclopenta[c]pyrrol-4-yl}-L-norvalinamide] | 4.89
O=C(N[C@H]1CC[C@H]2CN(Cc3ccccc3)C[C@H]21)C1(c2ccccc2)CCCC1 (relative stereo) [Example 1, N-[(3aS*,4S*,6aR*)-2-benzyloctahydrocyclopenta[c]pyrrol-4-yl]-1-phenylcyclopentanecarboxamide] | 5.71
FC(F)(F)c1cccc(N2C[C@H]3CC[C@H](NCc4ncc[nH]4)[C@H]3C2)n1 [Example 675, (3aR,4S,6aS)-N-(1H-imidazol-2-ylmethyl)-2-[6-(trifluoromethyl)pyridin-2-yl]octahydrocyclopenta[c]pyrrol-4-amine] | 5.65
Cc1ccc(N2C[C@H]3CC[C@H](NC(=O)[C@@H]4C[C@@H](F)CN4)[C@H]3C2)cc1 [Example 652, (4R)-4-fluoro-N-[(3aR,4S,6aS)-2-(4-methylphenyl)octahydrocyclopenta[c]pyrrol-4-yl]-L-prolinamide] | 4.67
O=C(N[C@H]1CC[C@@H]2CN(c3cccc(C(F)(F)F)n3)C[C@@H]21)c1cc(Cl)c[nH]1 [Example 575, 4-chloro-N-{(3aR,4S,6aS)-2-[6-(trifluoromethyl)pyridin-2-yl]octahydrocyclopenta[c]pyrrol-4-yl}-1H-pyrrole-2-carboxamide] | 6.15
CN[C@H](C(=O)N[C@H]1CC[C@@H]2CN(S(=O)(=O)c3cccc(C(F)(F)F)c3)C[C@@H]21)C(C)C [Example 389, N^2-methyl-N^1-((3aR,4S,6aS)-2-{[3-(trifluoromethyl)phenyl]sulfonyl}octahydrocyclopenta[c]pyrrol-4-yl)-L-valinamide] | 5.83
CC(C)(C)NC(=O)N[C@H]1CC[C@@H]2CN(c3ccc(OC(F)(F)F)cc3)C[C@@H]21 [Example 778, 1-tert-butyl-3-{(3aR,4S,6aS)-2-[4-(trifluoromethoxy)phenyl]octahydrocyclopenta[c]pyrrol-4-yl}urea] | 5.37
CN[C@@H](CC(C)C)C(=O)N[C@H]1CC[C@@H]2CN(c3cccc(C(F)(F)F)c3)C[C@@H]21 [Example 606, N^2-methyl-N-{(3aR,4S,6aS)-2-[3-(trifluoromethyl)phenyl]octahydrocyclopenta[c]pyrrol-4-yl}-L-leucinamide] | 5.92
Fc1cc(F)cc(-c2n[nH]cc2CN[C@H]2CC[C@@H]3CN(c4cccc(C(F)(F)F)n4)C[C@@H]32)c1 [Example 687, (3aR,4S,6aS)-N-{[3-(3,5-difluorophenyl)-1H-pyrazol-4-yl]methyl}-2-[6-(trifluoromethyl)pyridin-2-yl]octahydrocyclopenta[c]pyrrol-4-amine] | 5.90
Cc1ccc(C(=O)N[C@H]2CC[C@@H]3CN(c4cccc(C(F)(F)F)n4)C[C@@H]32)o1 [Example 576, 5-methyl-N-{(3aR,4S,6aS)-2-[6-(trifluoromethyl)pyridin-2-yl]octahydrocyclopenta[c]pyrrol-4-yl}-2-furamide] | 5.97
Cn1c(CN[C@H]2CC[C@@H]3CN(c4cccc(C(F)(F)F)n4)C[C@@H]32)nc2ccccc21 [Example 731, (3aR,4S,6aS)-N-[(1-methyl-1H-benzimidazol-2-yl)methyl]-2-[6-(trifluoromethyl)pyridin-2-yl]octahydrocyclopenta[c]pyrrol-4-amine] | 6.03

Same assay, conditions: read-out: IC50 (μM) or percent inhibition (* indicates 3 minute incubation, otherwise 60 minute); IC50; 60 minute pre-incubation with compound; IMR32 cells, 80 mM KCl depolarization

Compound | IC50 [µM]
CCC[C@H](NC)C(=O)N[C@H]1CC[C@@H]2CN(S(=O)(=O)c3cc(C(F)(F)F)cc(C(F)(F)F)c3)C[C@@H]21 [Example 538, N^1-((3aR,4S,6aS)-2-{[3,5-bis(trifluoromethyl)phenyl]sulfonyl}octahydrocyclopenta[c]pyrrol-4-yl)-N^2-methyl-L-norvalinamide] | 3.75
O=S(=O)(c1cccc(C(F)(F)F)c1)N(C1CC1)[C@H]1CC[C@H]2CN(CCC(c3ccc(F)cc3)c3ccc(F)cc3)C[C@H]21 (relative stereo) [Example 203, N-{(3aS*,4S*,6aR*)-2-[3,3-bis(4-fluorophenyl)propyl]octahydrocyclopenta[c]pyrrol-4-yl}-N-cyclopropyl-3-(trifluoromethyl)benzenesulfonamide] | 1.54
O=C(CCCCC(c1ccc(F)cc1)c1ccc(F)cc1)N[C@H]1CC[C@H]2CN(Cc3cccc(C(F)(F)F)c3)C[C@H]21 (relative stereo) [Example 130, 6,6-bis(4-fluorophenyl)-N-{(3aS*,4S*,6aR*)-2-[3-(trifluoromethyl)benzyl]octahydrocyclopenta[c]pyrrol-4-yl}hexanamide] | 0.79
CC(C)(C)C[C@H](NCC1CC1)C(=O)N[C@H]1CC[C@@H]2CN(c3cccc(C(F)(F)F)n3)C[C@@H]21 [Example 479, N^2-(cyclopropylmethyl)-4-methyl-N^1-{(3aR,4S,6aS)-2-[6-(trifluoromethyl)pyridin-2-yl]octahydrocyclopenta[c]pyrrol-4-yl}-L-leucinamide] | 0.26
CC(C)C(C(=O)N[C@@H]1CC[C@H]2CN(Cc3cccc(C(F)(F)F)c3)C[C@H]21)c1ccccc1 (stereo partly drawn) [Example 82, 3-methyl-2-phenyl-N-{(3aS,4R,6aR)-2-[3-(trifluoromethyl)benzyl]octahydrocyclopenta[c]pyrrol-4-yl}butanamide] | 1.48
O=C(CCCC(c1ccc(F)cc1)c1ccc(F)cc1)N[C@H]1CC[C@H]2CN(Cc3cccc(C(F)(F)F)c3)C[C@H]21 (relative stereo) [Example 132, 5,5-bis(4-fluorophenyl)-N-{(3aS*,4S*,6aR*)-2-[3-(trifluoromethyl)benzyl]octahydrocyclopenta[c]pyrrol-4-yl}pentanamide] | 1.13
CN[C@@H](CC(C)(C)C)C(=O)N(C)[C@H]1CC[C@@H]2CN(S(=O)(=O)c3ccc(C(F)(F)F)cc3Cl)C[C@@H]21 [Example 439, N^1-((3aR,4S,6aS)-2-{[2-chloro-4-(trifluoromethyl)phenyl]sulfonyl}octahydrocyclopenta[c]pyrrol-4-yl)-N^1,N^2,4-trimethyl-L-leucinamide] | 1.42
CC(C)C[C@H](NS(=O)(=O)c1ccccc1)C(=O)N[C@@H]1CC[C@H]2CN(Cc3cccc(C(F)(F)F)c3)C[C@H]21 [Example 523, N^2-(phenylsulfonyl)-N^1-{(3aS,4R,6aR)-2-[3-(trifluoromethyl)benzyl]octahydrocyclopenta[c]pyrrol-4-yl}-L-leucinamide] | 4.44
(3aR,4S,6aS)-N-[(4-chloro-1H-indol-3-yl)methyl]-2-[6-(trifluoromethyl)pyridin-2-yl]octahydrocyclopenta[c]pyrrol-4-amine [Example 692] | 0.99
O=C(N[C@@H]1CC[C@H]2CN(C(c3ccccc3)c3ccccc3)C[C@H]21)C(C1CCCCC1)C1CCCCC1 [Example 121, N-[(3aS,4R,6aR)-2-benzhydryloctahydrocyclopenta[c]pyrrol-4-yl]-2,2-dicyclohexylacetamide] | 14.3
CC(C)C[C@H](C(=O)N[C@H]1CC[C@H]2CN(Cc3cccc(C(F)(F)F)c3)C[C@H]21)N(C)C(=O)OC(C)(C)C (relative stereo) [Example 139, N^2-(tert-butyloxycarbonyl)-N^2-methyl-N^1-{(3aS*,4S*,6aR*)-2-[3-(trifluoromethyl)benzyl]octahydrocyclopenta[c]pyrrol-4-yl}-D-leucinamide] | 1.01
O=C(N[C@H]1CC[C@H]2CN(CCCc3ccc(C(F)(F)F)cc3)C[C@H]21)C(C1CCCCC1)C1CCCCC1 [Example 70, 2,2-dicyclohexyl-N-((3aS,4S,6aR)-2-{3-[4-(trifluoromethyl)phenyl]propyl}octahydrocyclopenta[c]pyrrol-4-yl)acetamide] | 1.93
CC(C)(C)C[C@H](N)C(=O)N[C@H]1CC[C@@H]2CN(Cc3ccccc3)C[C@@H]21 [Example 361, N^1-[(3aR,4S,6aS)-2-benzyloctahydrocyclopenta[c]pyrrol-4-yl]-4-methyl-L-leucinamide] | 24.7
